Data published in article PMC10294875, “Ether Derivatives of Naringenin and Their Oximes as Factors Modulating Bacterial Adhesion” (Antibiotics, 2023).

Key:
HT-29 cell line = assay: SRB assay, antiproliferative activity against HT-29; type: cell-based, human; conditions: Homo sapiens; 2 h incubation, SRB assay, HT-29
Description: (§1) The human adenocarcinoma cell line, HT-29 (ATCC HTB-38), was cultured in αMEM medium (IITD PAN) supplemented with 10% fetal bovine serum, FBS (Sigma-Aldrich, Taufkirchen, Germany), 100 U/mL penicillin, 100 µg/mL streptomycin antibiotic solution (Sigma-Aldrich, Taufkirchen, Germany), and 2 mM glutamine solution (Sigma-Aldrich, Taufkirchen, Germany). Cells from less than 20 passages were used for the study. In turn, preadipocytes from mouse embryos with the morphology of fibroblast cells, line 3T3-L1 (ATCC CL-173), were cultured in DMEM high-glucose medium (Life Technologies Corporation, Carlsbad, CA, USA) with the same supplements as above. Cells from less than 14 passages were used for the study. Both tested cell lines were grown at 37 °C in 5% CO2.
(§2) The effect of O-alkyl derivatives of naringenin and their oximes on eukaryotic cells was checked using a slightly modified SRB test described earlier. Firstly, HT-29 (1 × 10^5 cells/mL) and 3T3-L1 (5 × 10^4 cells/mL) cell lines were incubated in adherent microtiter plates under the conditions described above. The cells were then treated for 2 h with the tested compounds 1a–10a and 1b–10b at concentrations of 1, 5, 10, 25, 50, 75, and 100 µg/mL each. After this time, the medium was removed and replaced with one containing 50% (wt/vol) trichloroacetic acid (TCA; Sigma-Aldrich, Taufkirchen, Germany). Following 1 h of incubation at 4 °C, the plate was rinsed with water, and then an acidic solution of 0.4% sulforhodamine B (SRB) (Sigma-Aldrich, Taufkirchen, Germany), was added to the dried wells and incubated in the dark for half an hour. At the end of this time, the SRB solution was replaced by 1% (vol/vol) acetic acid, and the stained protein precipitate was dissolved in 10 mM Tris base solution (pH 10.5). Absorbance was measured at 560 nm in a plate reader (GloMax Discover Microplate Reader, Promega).
(§3) The cytotoxic effect of O-alkyl derivatives of naringenin and their oximes on eukaryotic cells was expressed as the concentration of the tested compounds at which 50% growth inhibition of the tested cell lines was observed. Values were presented in the form of the survival index (SI)–IC50. All determinations were repeated in three independent experiments, each performed in three technical replicates. Moreover, the effect of DMSO (Sigma-Aldrich, Taufkirchen, Germany), the solvent present in all the initial solutions of the tested compounds, on the growth of the cell lines used in the study was also verified.

3T3-L1 cell line = assay: SRB assay, antiproliferative activity against 3T3-L1; type: cell-based, mouse; conditions: Mus musculus; 2 h incubation, SRB assay, 3T3-L1
Description: as §1, §2, §3

[1] = system: Escherichia coli K12 (ATCC 10798); assay: Adhesion assay, static conditions: E. coli to 3T3-L1 cell line; type: cell-based
Description: The study used two reference strains, Escherichia coli K12 (ATCC 10798) and Enterococcus faecalis (ATCC 29212), obtained from the American Type Culture Collection. Both strains were stored in trypticase soy broth (TSB; OXOID, Basingstoke, UK) with the addition of 30% glycerol at −70 °C in the museum resources of the Department of Microbiology at the Wroclaw Medical University.
For studies determining the interaction of bacteria with eukaryotic cells, suspensions of the tested strains were prepared in Luria broth (LB, Becton, Dickinson and Company, USA) medium with a bacterial density of 6 × 10^8 CFU/mL.
The adhesion ability of the tested bacterial strains to HT-29 and 3T3-L1 cell lines was determined by an in vitro adhesion assay as described previously. Eukaryotic cells were infected with prokaryotic cells in the presence of the examined compounds in pre-selected concentrations at an MOI (multiplicity of infection) ratio of 50. Cells were exposed to the tested strains and compounds for 2 h. After this time, unbound bacteria were removed by washing with PBS (Life Technologies Corporation, Carlsbad, CA, USA). The lysates acquired by cell lysis (0.5% Triton X-100 in LB): 90 min, 37 °C, 5% CO2 atmosphere, were then seeded onto TSA and MC media for E. faecalis and E. coli, respectively. The assays were performed in at least three independent experiments (cells from subsequent passages), each in triplicate. A control without tested compounds was set for each strain.

[2] = system: Escherichia coli K12 (ATCC 10798); assay: Bioflux microfluidic adhesion: E. coli to 3T3-L1 cell line; type: cell-based; conditions: 50 µg/mL, control 0.37 ± 0.13
Description: (§4) Determination of the impact of a dynamic medium flow on the adhesive capacity of bacteria was performed using the Bioflux 1000Z (Fluxion, San Francisco, CA, USA) with a coupled microscope environmental chamber (Pecton Incubator XL S1, Carl Zeiss, Jena, Germany), enabling the maintenance of 37 °C and microaerophilic conditions. At the very beginning, all channels of dedicated microfluidic plates (Fluxion, San Francisco, CA, USA) were flushed with 100 µL of αMEM or DMEM high-glucose medium with supplements (further named “cell line medium”; for details of the supplementation see “Cell culture procedure”) applying an intensive flow of 10 dyne/cm^2 for 10 s. After unblocking the lumen of the channels, the inlet and outlet wells were emptied, and 20 µL of 100 µg/mL fibronectin solution (Sigma-Aldrich, Taufkirchen, Germany) was added to each inlet channel. The medium was turned in the outlet direction at a flow rate of 1 dyne/cm^2 for 1 min. After this step, the plate was left for a 1 h incubation period to allow fibronectin to be absorbed on the surface of the microcapillaries. […] After completing this stage, photographs of the microcapillaries containing the tested biological materials were taken using an inverted fluorescence microscope (GabH, Jena, Germany) and the Bioflux Montage software (Fluxion, San Francisco, CA, USA). […]

[3] = system: Escherichia coli K12 (ATCC 10798); assay: Bioflux microfluidic adhesion: E. coli to HT-29 cell line; type: cell-based; conditions: 50 µg/mL, control 0.65 ± 0.07
Description: as §4

[4] = system: Enterococcus faecalis (ATCC 29212); assay: Bioflux microfluidic adhesion: E. faecalis to 3T3-L1 cell line; type: cell-based; conditions: 50 µg/mL, control 0.29 ± 0.11
Description: as §4

[5] = system: Enterococcus faecalis (ATCC 29212); assay: Bioflux microfluidic adhesion: E. faecalis to HT-29 cell line; type: cell-based; conditions: 50 µg/mL, control 1.55 ± 0.15
Description: as §4

cell membranes = system: cell membranes; set-up: method as in PMID 10839220; conditions: cited from earlier work

SMILES | IC50 (HT-29 cell line) [µg/mL] | IC50 (3T3-L1 cell line) [µg/mL] | effect on adhesion of E. coli to 3T3-L1 (in words) [1] | BB/EC ratio (area of bacterial biomass adhered to the surface of the eukaryotic cells) [2] | BB/EC ratio [3] | BB/EC ratio [4] | BB/EC ratio [5] | concentration at which the membrane-solidifying effect is revealed (cell membranes) [µg/mL]
CCCCCCCCCOc1ccc([C@@H]2CC(=NO)c3c(O)cc(OCCCCCCCCC)cc3O2)cc1 [Compound 8b, 7,4’-di-O-nonylnaringenin oxime] | > 100 | > 100 | strongly enhance | 0.6 ± 0.12 | 1.03 ± 0.06 | 0.28 ± 0.15 | 1.36 ± 0.08 | –
O=C1C[C@@H](c2ccc(O)cc2)Oc2cc(O)cc(O)c21 [NG, naringenin] | > 100 | > 100 | – | – | – | – | – | ≥ 2.5
